Values of other authors, collected in patent publication US5837715A, “3-fluoro-4-aminopiperidine derivatives as 5-HT receptor agonists” (Merck Sharp & Dohme Ltd., priority 1997, dated 1998).

How the values were obtained:
[1] = tested on: human 5-HT1D.sbsb.α and 5-HT1D.sbsb.β receptor subtypes; conditions: cf. WO-A-91/17174, Table 1
[2] = humans, therapeutic doses

Q: With `CNS(=O)(=O)Cc1ccc2[nH]cc(CCN(C)C)c2c1` [sumatriptan] as the molecule, how does the “discrimination between the human 5-HT1D.sbsb.α and 5-HT1D.sbsb.β receptor subtypes” value [1] read?
A: barely discriminates

Q: And the adverse cardiovascular events [2]?
A: certain adverse cardiovascular events
